From patent US20080070986A1, “ALKYLETHER CITRATES FOR SELECTIVELY CLEANING THE SKIN” (priority 2006, published 2008)

Experiments:
Assay in all cases: Minimum inhibiting concentration (MIC), dilution series to DIN 58940 and DIN 58944
Assay type in all cases: cell-based
[1] = test system: Propionibacterium acnes; design: Minimum inhibiting concentration: unit not given here; conditions: for Minimum inhibiting concentration: test solution 10% active substance
Protocol: (§1) The scale of an antimicrobial effect of surfactants can be established in a biological test system in which the minimum inhibiting concentration (MIC) is comparatively determined under laboratory conditions. In a dilution series of the test substance, the MIC is just that concentration at which no further growth is possible. The milder a surfactant, the higher the MIC value. The minimum inhibiting concentration of various surfactants was determined for three microorganisms occurring on the skin (Table 1). The surfactants are referred to by their names under the INCI nomenclature. [table] [table]

[2] = test system: Staphylococcus epidermidis; design: Minimum inhibiting concentration: unit not given here; conditions: for Minimum inhibiting concentration: test solution 10% active substance
Protocol: as §1

[3] = test system: Malassezia furfur; design: unit not given here; conditions: test solution 10% active substance
Protocol: as §1

[4] = in words, versus the other surfactants of Table 1

Substance	Minimum inhibiting concentration ([1]; pH 6.5, single surfactants)	Minimum inhibiting concentration ([2]; pH 6.5, single surfactants)	Minimum inhibiting concentration ([3]; pH 6.5, single surfactants)	Inhibition compared with the other surfactants [1, 4]	Minimum inhibiting concentration ([1]; surfactant combinations)	Inhibition compared with the other surfactants [2, 4]	Minimum inhibiting concentration ([2]; surfactant combinations)	Minimum inhibiting concentration ([3]; surfactant combinations)
Cocamidopropyl betaine	0.05	0.1	>0.5	–	–	–	–	–
Laureth-7 Citrate	>0.5	>0.5	>0.5	only inhibited at considerably higher concentrations	≧1	only inhibited at considerably higher concentrations	≧1	≧1
Lauryl Glucoside	0.05	0.5	>0.5	–	–	–	–	–
Sodium Laureth Sulfate	0.05	0.5	>0.5	–	0.05	–	0.5	≧1
